From patent US20260231994A1, “TASTE-ENHANCING COMPOSITION, METHOD FOR PRODUCING SAME, FOOD PRODUCT, AND METHOD FOR ENHANCING TASTE OF FOOD PRODUCT” (HOUSE FOODS GROUP INC., priority 2023, published 2026)

What was measured:
Assay type in all cases: in vivo
[1] = Experiment 6 sensory evaluation of cyclic dipeptides, “middle fullness (enhanced thickness)”
Procedure, shortened: (§1)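 Reduced-sodium curry roux (44 g in 300 g hot water) was spiked with cyclic dipeptide solutions matching heat-treated coriander or paprika levels, at 0.5% or 1.0% (w/w) final. Three evaluators scored each sample against unspiked reduced-sodium and common roux. Mean scores were graded F to AA.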

[2] = Experiment 6 sensory evaluation of cyclic dipeptides, “top sharp saltiness”
Procedure, shortened: as §1

[3] = Experiment 6 sensory evaluation of cyclic dipeptides, “boosting of last flavor (aftertaste)”
Procedure, shortened: as §1

[4] = Experiment 1 sensory evaluation of “boosting of flavor” (cyclic dipeptides, coriander)
Description: Flour roux was prepared by putting 20 g of flour and 30 g of beef tallow in a pan, then heating with stirring at 120° C. To this flour roux were added 10 g of sodium chloride, 10 g of sugar, 10 g of cornstarch, 5 g of curry powder and 15 g of other seasoning ingredients (vegetable and fruit extracts, yeast extract and seafood extract), and after heat-treatment to 105° C., the mixture was cooled and solidified, to form a block of common curry roux.
The sodium chloride equivalent per 100 g of this curry roux was 10.6 g.
Reduced-sodium curry roux was prepared according to the same procedure, except that the amount of sodium chloride was reduced to 7 g from the amount in the common curry roux in (1).
The sodium chloride equivalent per 100 g of this reduced-sodium curry roux was 7.7 g.
Out of the cyclic dipeptides included in the heat-treated coriander prepared in 1.1. described above, which were confirmed to be increased in 1.2. above, an aqueous solution of the respective 14 cyclic dipeptides shown in the table described below was prepared. The concentration of the cyclic dipeptide in each aqueous solution was set to be equal to its concentration in the heat-treated coriander prepared in 1.1. described above, which was estimated from the ratio of the peak area of the cyclic dipeptide to the peak area of the internal standard (47 μg/g L-lysine-^13C6 monohydrochloride) confirmed in 1.2. described above.
Two dispersions of 44 g of the reduced-sodium curry roux in (2) dispersed in 300 g of hot water were prepared.
To one of them was added the heat-treated coriander or the powdered unheated coriander prepared in 1.1. described above, or the cyclic dipeptide aqueous solution (corresponding to the heat-treated coriander) prepared in (3) above, so that the final concentration was 0.2% (w/w), and a sensory evaluation was carried out.
Forty-four grams of the common curry roux in (1) was dispersed in 300 g of hot water.
The dispersion of reduced-sodium curry roux dispersed in hot water and the dispersion of common curry roux dispersed in hot water were used as comparative controls, and the strength of the flavor was evaluated by four evaluators on the basis of the following evaluation criteria from the viewpoint of “boosting of flavor.” The term “boosting of flavor” in this experiment is an effect concerted by the combination of sodium chloride and other foodstuffs in curry roux, and is an aspect of “saltiness.” Thus, the “flavor” in this experiment can be also expressed as “saltiness.”
The average of the evaluated scores was defined as “F” when it was 1.0 or lower, “C” when it was 1.1 or higher and 1.9 or lower, “B” when it was 2.0 or higher and 2.5 or lower, “A” when it was 2.6 or higher and 2.9 or lower, and “AA” when it was 3.0 or higher.

[5] = Additive amount paprika 0.5%, reduced-sodium curry roux
[6] = heat-treated paprika equivalent aqueous solution of cyclic dipeptide, final 1.0% (w/w) in reduced-sodium curry roux dispersion
[7] = heat-treated paprika equivalent aqueous solution of cyclic dipeptide, final 1.0% (w/w) in reduced-sodium curry roux dispersion, 3 evaluators

Substance: cyclic (Thr-Pro) [Coriander ID 14]
- Middle fullness Average [1, 5]: 2.0 points
- Middle fullness Evaluation [1, 5]: B (“B” when it was 2.0 or higher and 2.5 or lower)
- Middle fullness Evaluation [1, 6]: B (“B” when it was 2.0 or higher and 2.5 or lower)
- Middle fullness Average [1, 7]: 2.5 points
- Top sharp saltiness Average ([2]; Additive amount paprika 0.5% (heat-treated paprika equivalent aqueous solution, final 0.5% (w/w)), reduced-sodium curry roux): 2.2 points
- Top sharp saltiness Evaluation [2, 5]: B (“B” when it was 2.0 or higher and 2.5 or lower)
- Top sharp saltiness Evaluation [2, 6]: B (“B” when it was 2.0 or higher and 2.5 or lower)
- Top sharp saltiness Average [2, 7]: 2.0 points
- Bosting of last flavor Average [3, 5]: 2.2 points
- Bosting of last flavor Evaluation [3, 5]: B (“B” when it was 2.0 or higher and 2.5 or lower)
- Bosting of last flavor Evaluation [3, 6]: B (“B” when it was 2.0 or higher and 2.5 or lower)
- Bosting of last flavor Average [3, 7]: 2.5 points
- “boosting of flavor” in words ([4]; added to reduced-sodium curry roux dispersion, compared with no addition, unheated coriander or common curry roux): comparable flavor to that of the dispersion of common curry roux
- “boosting of flavor” Average ([4]; cyclic dipeptide aqueous solution (concentration as in heat-treated coriander) at final 0.2% (w/w) in reduced-sodium curry roux dispersion, score 1-5): 3.3 points
- “boosting of flavor” Evaluation ([4]; cyclic dipeptide aqueous solution at final 0.2% (w/w) in reduced-sodium curry roux dispersion, class of average score): AA (“AA” when it was 3.0 or higher)
